Patent US8575170B2, “Flurbiprofen analogs and methods of use in treating cancer” (The Regents of the Unversity of Colorado, a body corporate, priority 2010, dated 2013)
Like-named read-outs stand apart in the source and are kept apart here.

What was measured:
[1] = test system: 1483; assay: MTT cell viability, 1483; format: cell-based; details: Head and neck cancer cell line 1483
Method: (§1) The ability of the flurbiprofen analog compounds of the invention to inhibit cancer cell growth and survival (viability) in a variety of cancer lines was examined in a standard MTT assay for cell viability, as detailed in Example 2.
(§2) A similar study was conducted on 14 […] cancer cell lines, identified in Table 2.
(§3) Cell growth and survival following treatment with N—[(S)-2-Fluoro-α-methyl-4-biphenylacetyl]-[L-(4-phenylphenyl)alanine]-N-(2,2,6,6-tetramethyl-4-piperidinyl)amide (GCBH-110=B1031; (S)-Fmba-L-Bip-Atmp) were measured by a rapid colorimetric assay based on the tetrazolium salt MTT (3-(4,5-dimethylthiazol-2-yl)-2,5-diphenyl tetrazolium bromide) (Mosmann, J. Immunol. Methods 65: 55-63, 1983, with minor modifications).
(§4) Briefly, approximately 1,000-5,000 cancer cells from 15 different cancer cells lines were plated in 100 μL of growth medium in 96-well flat-bottomed microtiter plates. Cells were incubated overnight to allow recovery. Compounds to be tested were added to the cells in triplicate in a range of concentrations and the cells were incubated at 37° C., 5% CO2, with 100% humidity. Control cells were treated in the same way without antagonists. […] Plates were incubated for 4 days, allowing sufficient time for cell replication and compound-induced cell death to occur. […] Absorbance was immediately determined using a scanning multiwell plate reader. […]

[2] = test system: head and neck cancer cell lines; assay: MTT cell viability, panel of head and neck cancer cell lines; format: cell-based
Method: as §1, §2, §3
(§5) Briefly, approximately 1,000-5,000 cancer cells from 15 different cancer cells lines were plated in 100 μL of growth medium in 96-well flat-bottomed microtiter plates. Cells were incubated overnight to allow recovery. Compounds to be tested were added to the cells in triplicate in a range of concentrations and the cells were incubated at 37° C., 5% CO2, with 100% humidity. Control cells were treated in the same way without antagonists. […] Plates were incubated for 4 days, allowing sufficient time for cell replication and compound-induced cell death to occur. On day 5, 25 μL of a 2 mg/mL solution of MTT (Sigma) dissolved in RMPI-1640 was added to each well. The plate was incubated for 4 h at 37° C. The supernatant liquid was removed and the blue formazan complex was dissolved by adding 100 μL of 0.02 N HCl in 75% isopropanol to all wells. Absorbance was immediately determined using a scanning multiwell plate reader.
Similarly, cell growth and survival following treatment with GCBH-110=B1031 was tested using the same MTT assay in 6 head and neck cancer cell lines. GCBH-110=B1031 caused 50% cell death at concentrations between about 0.3 μM and about 2 μM under these conditions (FIG. 3). […] GCBH-110=B1031 caused 50% cell death at concentrations between about 0.2 μM and about 0.8 μM under these conditions.

[3] = test system: L33; assay: MTT cell viability, L33; format: cell-based; details: Pancreatic cancer cell, 96 h; Pancreatic cancer cells L33; 4 days incubation
Excerpt: as §1
(§6) Similar results were obtained for the effect of the B1031 compound on the 14 pancreatic tumor cells lines shown in Table 3 below, where the dose dependent effect of the compound on survival of the pancreatic cancer cell lines is shown in FIG. 5.
(§7) The studies reported in Tables 1-3 above were carried out by incubating the cells in the test compound for four days, under standard cell-culture conditions, and measuring cell survival on day 5 (see Example 2).
as §3
(§8) Briefly, approximately 1,000-5,000 cancer cells from 15 different cancer cells lines were plated in 100 μL of growth medium in 96-well flat-bottomed microtiter plates. Cells were incubated overnight to allow recovery. […] Absorbance was immediately determined using a scanning multiwell plate reader.

[4] = test system: H719; assay: MTT cell viability, H719; format: cell-based; details: 96 h; SCLC lung cell line H719; 4 days incubation
Method: as §1, §7, §3
(§9) Briefly, approximately 1,000-5,000 cancer cells from 15 different cancer cells lines were plated in 100 μL of growth medium in 96-well flat-bottomed microtiter plates. Cells were incubated overnight to allow recovery. Compounds to be tested were added to the cells in triplicate in a range of concentrations and the cells were incubated at 37° C., 5% CO2, with 100% humidity. Control cells were treated in the same way without antagonists. […] Absorbance was immediately determined using a scanning multiwell plate reader.

[5] = test system: H2122 lung carcinoma solid tumor xenograft; assay: H2122 lung carcinoma xenograft in nude mice; format: in vivo, athymic nude mice; details: 5 mg/kg daily intraperitoneal, from day 7 after implantation, over the 25 days of treatment, FIG. 11
Method: The efficacy of the treatment method was examined for both lung carcinoma-cell tumors and pancreatic-cell tumors implanted in athymic mice, according to the method detailed in Example 3. In the first study, mice injected with lung-carcinoma cells were treated, seven days after cancer-cell implantation, by daily injection of 5 mg/kg body weight of one of three different flurbiprofen analog compounds: B1005 (GCBH 104); B1020 (GCBH 108) and B1031 (GCBH 110). Tumor size was measured by calipers at the days indicated in FIG. 11, with final tumor weight and volume being determined by extracting the tumor from the sacrificed animals.
Compounds having high in vitro cytotoxic activity were tested against implanted tumors in vivo. In one study, athymic nude mice were implanted subcutaneously with suspensions of approximately 2 million H2122 lung carcinoma cells, in Matrigel suspension. On the seventh day after tumor implantation, groups of 5 mice bearing implants were injected intraperitoneally with the compounds being tested at 5 mg/kg/every day; control animals were injected with an equal volume of isotonic saline. […] Tumor size was measured with a caliper three times per week. Tumor volume was calculated by the formula: Volume (cc)=3.14×(length)×(width)^2/6
At autopsy, tumors were removed and weighed. Tumor inhibition was calculated on both weight and measurement basis.

[6] = test system: H520; assay: MTT cell viability, H520; format: cell-based; details: Homo sapiens, NCI-H520, 96 h; Squamous lung cell line H520; 4 days incubation
Method: as §1, §7, §3, §9

[7] = test system: H157; assay: MTT cell viability, H157; format: cell-based; details: Homo sapiens, NCI-H157, 96 h; Squamous lung cell line H157; 4 days incubation
Method: as §1, §7, §3, §9

[8] = test system: L36; assay: MTT cell viability, L36; format: cell-based; details: Pancreatic cancer cell, 96 h; Pancreatic cancer cells L36; 4 days incubation
Excerpt: as §1, §6, §7, §3, §8

[9] = test system: H661; assay: MTT cell viability, H661; format: cell-based; details: Homo sapiens, NCI-H661, 96 h; Large Cell lung cell line H661; 4 days incubation
Method: as §1, §7, §3, §9

[10] = test system: UMSCC22B; assay: MTT cell viability, UMSCC22B; format: cell-based; details: Homo sapiens; Head and neck cancer cell line UMSCC22B
Method: as §1, §2, §3, §4

[11] = test system: WM239a; assay: MTT cell viability, WM239a; format: cell-based; details: Melanoma cell line WM239a
Excerpt: as §1
The results for the several cell lines above were also consistent with IC50 values measured for two melanoma cell lines shown in Table 4 below.
as §3, §9

[12] = test system: 15 different cancer cells lines; assay: MTT cell viability, 15 different cancer cell lines (FIG. 1); format: cell-based; details: 96 h, several cancer cell lines, 4 days, read-out: concentrations causing 50% cell death
Method: as §3, §5

[13] = test system: MSK922; assay: MTT cell viability, MSK922; format: cell-based; details: Head and neck cancer cell line MSK922
Method: as §1, §2, §3, §4

[14] = test system: H322C1; assay: MTT cell viability, H322C1; format: cell-based; details: 96 h; Adenocarcinoma lung cell line H322C1; 4 days incubation
Method: as §1, §7, §3, §9

[15] = test system: UMSCC10A; assay: MTT cell viability, UMSCC10A; format: cell-based; details: UMSCC-10A; Head and neck cancer cell line UMSCC10A
Method: as §1, §2, §3, §4

[16] = test system: MiaPaCa; assay: MTT cell viability, MiaPaCa; format: cell-based; details: Homo sapiens, MIA PaCa-2, 96 h; Pancreatic cancer cells MiaPaCa; 4 days incubation
Excerpt: as §1, §6, §7, §3, §8

[17] = test system: UMSCC2; assay: MTT cell viability, UMSCC2; format: cell-based; details: UM-SCC2; Head and neck cancer cell line UMSCC2
Method: as §1, §2, §3, §4

[18] = test system: Capan-2; assay: MTT cell viability, Capan-2; format: cell-based; details: Homo sapiens, 96 h; Pancreatic cancer cells Capan-2; 4 days incubation
Excerpt: as §1, §6, §7, §3, §8

IC50 ([2]; majority of the head and neck cell lines, read-out: IC50 value, majority of the cell lines): < 500 nM | IC50 ([2]; span over 14 head and neck cancer cell lines, Table 2, FIGS. 3 and 4, read-out: IC50 values): 200 to 2000 nM | IC50 [4]: 1080 nM | IC50 [6]: 250 nM | IC50 [7]: 210 nM | IC50 [9]: 350 nM | IC50 [14]: 130 nM | IC50 [16]: 740 nM
SMILES: C[C@H](C(=O)N[C@@H](Cc1ccc(-c2ccccc2)cc1)C(=O)NC1CC(C)(C)NC(C)(C)C1)c1ccc(-c2ccccc2)c(F)c1 [GCBH-110, N—[(S)-2-Fluoro-α-methyl-4-biphenylacetyl]-[L-(4-phenylphenyl)alanine]-N-(2,2,6,6-tetramethyl-4-piperidinyl)amide]
IC50 [1]: 300 nM | IC50 ([2]; 6 head and neck cancer cell lines, FIG. 3, read-out: concentrations causing 50% cell death): 300 to 2000 nM | IC50 ([2]; another panel of head and neck cancer cell lines, longer treatment exposure, FIG. 4, read-out: concentrations causing 50% cell death): 200 to 800 nM | IC50 [3]: 700 nM | inhibition of growth of the lung carcinoma cell line H2122 tumor [5]: 76% | IC50 [8]: 600 nM | IC50 [10]: 300 nM | IC50 [11]: 230 nM | IC50 [12]: 100 to 1000 nM | IC50 [13]: 410 nM | IC50 [15]: 200 nM | IC50 [17]: 950 nM | IC50 [18]: 1500 nM
